The values below come from the supplement of paper PMC10307832.

Assay in all cases: relative viability (nuclei count vs DMSO), 5 days (fraction); higher = more cells survive
Compound in assay [1]: C1=CC2=C(C=C(C(=C2N=C1)O)N=NC3=CC4=C(C=C3)C=C(C=C4)S(=O)(=O)O)S(=O)(=O)O + Nc1ncn([C@H]2C[C@H](O)[C@@H](CO)O2)c(=O)n1 [Decitabine] (partner 2 µM)
In outline:
(§1)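 For relative viability, nuclei counts in treated wells were divided by those in vehicle wells. Lung cancer cell lines had been pin-tool dosed in 1536-well plates the day after seeding and cultured for 5 days, then fixed and stained in one step (final 0.05% Triton X-100, 1% formaldehyde, 1 ug/ml Hoechst) and imaged at 4×. Doses were one drug alone or a fixed anchor-drug dose plus five library-drug doses (not always all listed) in √10 steps, and values are duplicate-plate medians.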

Compound in assay [2]: C1=CC2=C(C=C(C(=C2N=C1)O)N=NC3=CC4=C(C=C3)C=C(C=C4)S(=O)(=O)O)S(=O)(=O)O + CCNC(=O)c1noc(-c2cc(C(C)C)c(O)cc2O)c1-c1ccc(CN2CCOCC2)cc1 [Luminespib] (partner 0.01 µM)
The method, boiled down: as §1

Compound in assay [3]: C1=CC2=C(C=C(C(=C2N=C1)O)N=NC3=CC4=C(C=C3)C=C(C=C4)S(=O)(=O)O)S(=O)(=O)O + N=C(N)NC(=N)NCCc1ccccc1 [Phenformin] (partner 250 µM)
In outline:
as §1

Compound in assay [4]: O=C(NC1CCNCC1)c1n[nH]cc1NC(=O)c1c(Cl)cccc1Cl [AT-7519] + C[C@]1(O)C[C@@H](c2nc(-c3ccc4ccc(-c5ccccc5)nc4c3)c3c(N)nccn32)C1 [Linsitinib] (partner 1 µM)
The method, boiled down:
as §1

Regarding RERF-LC-KJ, the relative viability in assay [1] (first compound 0.08 µM) is 0.654; in assay [1] (first compound 0.253 µM), 0.684; in assay [1] (first compound 0.8 µM), 0.637; in assay [1] (first compound 2.53 µM), 0.761; in assay [1] (first compound 8 µM), 0.631; in assay [2] (first compound 0.08 µM), 1.38. Further, the relative viability was 1.18 in assay [2] (first compound 0.253 µM); 1.18 in assay [2] (first compound 0.8 µM); 1.37 in assay [2] (first compound 2.53 µM); 1.38 in assay [2] (first compound 8 µM); 0.439 in assay [3] (first compound 0.08 µM); 0.39 in assay [3] (first compound 0.253 µM). Also, the relative viability worked out at 0.435 in assay [3] (first compound 0.8 µM); 0.439 in assay [3] (first compound 2.53 µM); 0.43 in assay [3] (first compound 8 µM); 0.914 in assay [4] (first compound 0.01 µM); 0.848 in assay [4] (first compound 0.03162 µM); 1.03 in assay [4] (first compound 0.3162 µM). Besides, in assay [4] (first compound 1 µM), the relative viability turned out to be 0.811.

Turning to A-427, the relative viability in assay [1] (first compound 0.08 µM) was determined as 0.558; in assay [1] (first compound 0.253 µM), 0.554; in assay [1] (first compound 0.8 µM), 0.534; in assay [1] (first compound 2.53 µM), 0.547; in assay [1] (first compound 8 µM), 0.551; in assay [2] (first compound 0.08 µM), 0.891. Besides, the relative viability in assay [2] (first compound 0.253 µM) is 0.823; in assay [2] (first compound 0.8 µM), 0.851; in assay [2] (first compound 2.53 µM), 1.04; in assay [2] (first compound 8 µM) it was 0.727; in assay [3] (first compound 0.08 µM) it was 0.324; in assay [3] (first compound 0.253 µM), 0.293. The relative viability was 0.283 in assay [3] (first compound 0.8 µM); 0.288 in assay [3] (first compound 2.53 µM); 0.313 in assay [3] (first compound 8 µM); 1.13 in assay [4] (first compound 0.01 µM); 1.12 in assay [4] (first compound 0.03162 µM); 1.13 in assay [4] (first compound 0.3162 µM). The relative viability in assay [4] (first compound 1 µM) stood at 0.81.

NCI-H441: the relative viability in assay [1] (first compound 0.08 µM) is 0.245; in assay [1] (first compound 0.253 µM), 0.246; in assay [1] (first compound 0.8 µM) it was 0.238; in assay [1] (first compound 2.53 µM) it was 0.252; in assay [1] (first compound 8 µM), 0.248; in assay [2] (first compound 0.08 µM) it was 0.454. In addition, the relative viability in assay [2] (first compound 0.253 µM) came out at 0.323; in assay [2] (first compound 0.8 µM) it was 0.428; in assay [2] (first compound 2.53 µM), 0.363; in assay [2] (first compound 8 µM), 0.278; in assay [3] (first compound 0.08 µM), 0.918; in assay [3] (first compound 0.253 µM) it was 0.761. For the same cell line, the relative viability in assay [3] (first compound 0.8 µM) amounted to 0.731; in assay [3] (first compound 2.53 µM) it was 0.947; in assay [3] (first compound 8 µM) it was 0.821; in assay [4] (first compound 0.01 µM) it was 0.553; in assay [4] (first compound 0.03162 µM) it was 0.482; in assay [4] (first compound 0.3162 µM), 0.487. The relative viability in assay [4] (first compound 1 µM) was found to be 0.395.

NCI-H1703: the relative viability came to 0.854 in assay [4] (first compound 0.01 µM), 0.835 in assay [4] (first compound 0.03162 µM), 0.379 in assay [4] (first compound 0.3162 µM) and 0.149 in assay [4] (first compound 1 µM).

Turning to NCI-H1792, the relative viability in assay [1] (first compound 0.08 µM) is 0.627; in assay [1] (first compound 0.253 µM), 0.483; in assay [1] (first compound 0.8 µM), 0.508; in assay [1] (first compound 2.53 µM), 0.5; in assay [1] (first compound 8 µM) it was 0.473; in assay [2] (first compound 0.08 µM), 0.481. Also, the relative viability in assay [2] (first compound 0.253 µM) came to 0.418; in assay [2] (first compound 0.8 µM) it was 0.58; in assay [2] (first compound 2.53 µM), 0.423; in assay [2] (first compound 8 µM) it was 0.331; in assay [3] (first compound 0.08 µM), 0.261; in assay [3] (first compound 0.253 µM) it was 0.343. The relative viability in assay [3] (first compound 0.8 µM) is 0.254; in assay [3] (first compound 8 µM), 0.295; in assay [4] (first compound 0.01 µM), 0.291; in assay [4] (first compound 0.03162 µM), 0.358; in assay [4] (first compound 0.3162 µM), 0.441; in assay [4] (first compound 1 µM), 0.444.

For Calu-6, the relative viability in assay [4] (first compound 0.01 µM) was 1.05; in assay [4] (first compound 0.03162 µM) it was 0.942; in assay [4] (first compound 0.3162 µM), 1.07; in assay [4] (first compound 1 µM), 0.772.

As to SK-LU-1, the relative viability came to 0.795 in assay [1] (first compound 0.08 µM); 0.679 in assay [1] (first compound 0.253 µM); 0.664 in assay [1] (first compound 0.8 µM); 0.616 in assay [1] (first compound 2.53 µM); 0.655 in assay [1] (first compound 8 µM); 0.175 in assay [2] (first compound 0.08 µM). Further, the relative viability is 0.203 in assay [2] (first compound 0.253 µM); 0.208 in assay [2] (first compound 0.8 µM); 0.209 in assay [2] (first compound 2.53 µM); 0.175 in assay [2] (first compound 8 µM); 0.597 in assay [3] (first compound 0.08 µM); 0.493 in assay [3] (first compound 0.253 µM). In addition, the relative viability in assay [3] (first compound 0.8 µM) came to 0.558; in assay [3] (first compound 2.53 µM), 0.572; in assay [3] (first compound 8 µM) it was 0.624; in assay [4] (first compound 0.01 µM), 1.39; in assay [4] (first compound 0.03162 µM), 1.2; in assay [4] (first compound 0.3162 µM), 0.849. The relative viability in assay [4] (first compound 1 µM) amounted to 0.356.

Take PC-3 [JPC-3]: the relative viability in assay [1] (first compound 0.08 µM) is 0.843; in assay [1] (first compound 0.253 µM), 0.793; in assay [1] (first compound 0.8 µM), 0.833; in assay [1] (first compound 2.53 µM), 0.883; in assay [1] (first compound 8 µM) it was 0.814; in assay [2] (first compound 0.08 µM), 0.576. Further, the relative viability in assay [2] (first compound 0.253 µM) was determined as 0.708; in assay [2] (first compound 0.8 µM), 0.663; in assay [2] (first compound 2.53 µM) it was 0.729; in assay [2] (first compound 8 µM) it was 0.761; in assay [3] (first compound 0.08 µM) it was 0.474; in assay [3] (first compound 0.253 µM) it was 0.473. The relative viability stood at 0.477 in assay [3] (first compound 0.8 µM); 0.478 in assay [3] (first compound 2.53 µM); 0.494 in assay [3] (first compound 8 µM); 0.957 in assay [4] (first compound 0.01 µM); 0.974 in assay [4] (first compound 0.03162 µM); 1.04 in assay [4] (first compound 0.3162 µM). Besides, the relative viability in assay [4] (first compound 1 µM) was 1.02.
